Values of other authors, collected in patent publication US20240316119A1, “COMPOSITIONS AND METHODS FOR SUPPRESSING PATHOGENIC ORGANISMS” (VEDANTA BIOSCIENCES, INC., priority 2021, published 2024).

Tested on: Klebsiella pneumoniae and Citrobacter rodentium
Settings: reported in Stacy et al. Cell. 2021 184(3):615-627

Compound: NCCS(=O)(=O)O [taurine, 2-aminoethanesulfonic acid]
- effect of supplying exogenous taurine alone on microbiota function and resistance to infection: sufficient to induce this alteration in microbiota function and enhance resistance
